Results taken from patent US20230313299A1, “METHOD FOR DIAGNOSIS AND/OR PROGNOSIS OF LIVER DISEASE PROGRESSION AND RISK OF HEPATOCELLULAR CARCINOMA AND DISCOVERY OF THERAPEUTIC COMPOUNDS AND TARGETS TO TREAT LIVER DISEASE AND CANCER” (UNIVERSITÉ DE STRASBOURG, priority 2020, published 2023).
Entries after “also recorded” stand apart in the source; their conditions may differ.

How the values were obtained:
[1] = test system: Prognostic Epigenetic Signature (PES, 25-gene signature) in HCV Jc1-infected Huh7.5.1dif cells; test: PES cell-based model: HCV-infected differentiated Huh7.5.1 cells, PES expression by RNA-Seq or nCounter; parameters: species or system human; conditions: JQ1 50 nM, Nizatidine 10 μM, Captopril 1 μM, Pioglitazone 1 μM
Protocol: Cell-based models. Huh7.5.1 and human stellate LX2 cells were cultured in Dulbecco's Modified Eagle Medium (DMEM) supplemented with 10% heat-decomplemented fetal bovine serum FBS, gentamycin (0.05 mg/mL) and non-essential amino acids (complete DMEM) at 37° C. with 5% CO2. For proliferation arrest and differentiation ([…] cells), Huh7.5.1 cells were cultured in complete DMEM supplemented 1% DMSO [5]. All cell lines were certified mycoplasma-free. To analyze the PES induction […] cells were infected with HCV Jc1 (genotype 2a/2a) for a total of 10 days. Cells were then treated with Captopril (1 μM), Nizatidine (10 μM), Pioglitazone (1 μM), JQ1 (50 nM). For the FFA model, Huh7.5.1^dif cells were cocultured with 20% LX-2 cells. Following co-culture for 3 days in DMEM supplemented with 10% heat-decomplemented FBS, gentamycin and 1% DMSO at 37° C. and 5% CO2, cells were incubated with FFA (800 μM oleic acid and 400 μM palmitic acid) for 72 h.
(§1) Analysis of gene expression of the prognostic epigenetic signature (PES) using nCounter expression or RNASeq analyses. Profiling of the PES was performed using Nanostring nCounter assay or RNASeq as described. Induction or suppression of the PES in gene expression data was determined as previously reported using the Gene Set Enrichment Analysis (GSEA), implemented in GenePattern genomic analysis toolkits. […]

[2] = test system: DEN and CDAHFD-induced hepatocarcinogenesis; test: DEN/CDAHFD NASH-fibrosis-HCC mouse model: liver disease, fibrosis and tumor burden; type: in vivo; conditions: DEN/CDAHFD mice
From the text: FIG. 8. Reversal of the PES poor prognosis status in vivo by a bromodomain-4 inhibitor translates into improvement of liver disease and cancer prevention (A) Schematic representation of in vivo the proof-of-concept study using a mouse model of DEN and choline-deficient, L-amino acid-defined, high-fat diet (CDAHFD)-induced hepatocarcinogenesis. (B) Transcriptomic changes of genes with significant H3K27ac modifications from livers from patients with NASH and chronic hepatitis C (CHC) as explained in FIG. 1D (overlapping genes) and corresponding changes in vehicle or JQ1-treated DEN/CDAHFD mice. (C) Venn diagram showing epigenetically and transcriptionally altered genes in CHC/NASH patients and in DEN/CDAHFD mice, that were corrected by JQ1 treatment. Genes that harbor epigenetic and transcriptomic changes were identified in CHC/NASH patients and in DEN/CDAHFD mice. Among the changed genes, the inventors analyzed whether JQ1 could revert back their H3K27ac levels and their transcript expression levels. (H) GSEA enrichments of 1693-gene signature and 25-gene signature (PES) gene sets in data shown for JQ1-treated DEN/CDAHFD mice. (D) Improvement of liver disease and prevention of HCC. The global status corresponds to the difference between low risk- and high risk-gene expression. GSEA enrichments of 1693-gene signature and 25-gene signature (PES) gene sets in data shown for JQ1-treatment on panel B. The global status corresponds to the difference between low risk- and high risk-gene expression. […] Results are expressed as means±SEM. (F) Representative macroscopic photographs of livers (×1.5 magnified), H&E and Sirius red staining of liver sections from vehicle and JQ1-treated mice. Tumor nodules are indicated by an arrowhead and are delimited by dashed lines. […] Fibrosis stage was evaluated through quantitative digital analysis of whole-scanned liver sections (collagen proportional area (CPA)) in JQ1-treated (n=3) compared with JQ1-untreated (n=3) mice. Results are expressed as means±SD.
Example 5: Reversal of the PES poor prognosis status in vivo translates into improvement of liver disease, inhibition of fibrosis progession and cancer prevention. To investigate (1) whether the PES is modeled in animal models for liver disease and (2) reversal of the […] poor prognosis status by a compound correlates with improvement of liver disease and cancer prevention, the inventors studied the 1693 gene signature and the 25 gene subset expression in a NASH-fibrosis-HCC mouse model, in which the mice are treated with the BRD inhibitor JQ1 following development of liver disease. In this model a Choline-deficient high-fat-diet (CDHFD) diet combined with DEN, a chemical carcinogen, induces liver fibrosis progressing to HCC. […] Mice were treated with JQ1 after 6 weeks of CDAHFD feeding when liver disease developed (FIG. 8A).

[3] = test system: 1693-gene signature and 25-gene signature (PES); test: Transcriptomic profiling (RNA-Seq, GSEA) of livers of DEN/CDAHFD mice; type: in vivo, mouse
Protocol: ChIPmentation based ChIP-Seq and RNA next-generation sequencing (NGS). ChIPmentation-based ChIP-Seq was performed as described. RNA-Seq was performed as described. Mouse RNA-Seq data was processed as described for patient's data but was instead mapped to the mouse genome mm10 and annotated using the Gencode vM15 gene annotation. Processing of ChIPmentation data was described, and data was partially derived from BioProject PRJNA506130. Since late stage fibrosis patients have the highest HCC risk, patient tissues from late stage fibrosis (F3 and F4) samples were included for all H3K27ac analyses as well as from the external CHC RNA-Seq dataset (GSE84346)[12]. Transcriptomic data for NASH patients was derived from external expression dataset (GSE115193)[13] and data for DAA-cured patients was published in BioProject PRJNA506130[6]. The RNA-Seq data from HCV-infected liver cells was published in (GSE126831)[14].
as §1, with “toolkits. False discovery rate (FDR)<0.05 was regarded as statistically significant.” for “toolkits.”

Row | Structure (SMILES) | Reversal of PES (25-gene signature) from HCC high risk, poor prognosis status to HCC low risk, good prognosis status [1] | Tumor burden in vivo [2] | Liver fibrosis measured by collagen proportionate area (CPA) ([2]; treated n=3 vs untreated n=3) | Body weight ([2]; treated n=8 vs untreated n=8) | Liver weight ([2]; treated n=8 vs untreated n=8) | Number of tumor nodules ([2]; treated n=8 vs untreated n=8) | GSEA enrichment of 1693-gene signature and 25-gene signature (PES) gene sets after treatment [3] | Expression of H3K27ac-altered genes in patients reverted by treatment ([3]; 1007 out of 1693 genes)
1 | Cc1sc2c(c1C)C(c1ccc(Cl)cc1)=N[C@@H](CC(=O)OC(C)(C)C)c1nnc(C)n1-2 [JQ1] | Reversal of the poor prognosis/HCC high risk genes to good prognosis/HCC low risk expression; also recorded: reverted the 25-gene signature (PES) | significantly reduces tumor burden | efficiently reduces liver fibrosis; also recorded: significantly (p<0.05) reduced | stable; also recorded: without altering | significantly reduced | reduced; also recorded: overall decrease in their number | correspondingly (i.e., reversely) enriched | 59%
2 | CNC(=C[N+](=O)[O-])NCCSCc1csc(CN(C)C)n1 [Nizatidine] | Reversal of the poor prognosis/HCC high risk genes to good prognosis/HCC low risk expression |  |  |  |  |  |  | 
